In the NIST ThermoML archive (doi:10.1016/j.tca.2016.11.017):
Numbers after ± are expanded uncertainties.

Experiments:
[1] = Molar enthalpy of transition or fusion; settings: DSC
[2] = for mass density: 103 K, 101.33 kPa, X-ray diffraction; for Normal melting temperature: DTA

| Molar enthalpy of transition or fusion ([1]; Crystal 1) [kcal/mol] | Molar enthalpy of transition or fusion ([1]; Crystal 2) [kcal/mol] | mass density ([2]; Crystal) [kg/m3] | Normal melting temperature ([2]; Crystal 1) [°C] | Normal melting temperature ([2]; Crystal 2) [°C] | Molar enthalpy of transition or fusion ([1]; Crystal) [kcal/mol] | Normal melting temperature ([2]; Crystal) [°C] | Compound |
| --- | --- | --- | --- | --- | --- | --- | --- |
| 7.31 ± 1.48 | 9.16 ± 1.84 | 1149 ± 6 | 162.90 ± 0.5 | 166.30 ± 0.5 | – | – | CO[C@H](C(=O)[O-])c1ccccc1.C[C@H]([NH3+])C1CCCCC1 |
| – | – | – | – | – | 6 ± 1.2 | 70.60 ± 0.5 | COC(C(=O)O)c1ccccc1 (configuration not stated) [2-methoxy-2-phenylacetic acid] |
| – | – | 1311 ± 7 | – | – | 4.51 ± 0.908 | 69.30 ± 0.5 | CO[C@H](C(=O)O)c1ccccc1 [(S)-2-methoxy-2-phenylacetic acid] |
| – | – | – | – | – | 10.9 ± 2.2 | 187.40 ± 0.5 | CO[C@H](C(=O)[O-])c1ccccc1.C[C@@H]([NH3+])C1CCCCC1 |
